Three compounds from DBAASP can be followed below.

Some test systems named below: Acinetobacter baumannii; Enterococcus faecalis; Enterococcus faecium; Escherichia coli AB94012; Escherichia coli; Klebsiella pneumoniae; Pseudomonas aeruginosa; Staphylococcus aureus; Acinetobacter junii RT-4; Bacillus megaterium Bm11; Escherichia coli D21; Saccharomyces cerevisiae; Staphylococcus capitis 1; Bordetella pertussis.
Holding throughout (test): ≥ marks a high value that may be exact or a test limit, other limits are often not marked, values filed in µg/mL are converted to µM
Assay [1] deals with Acinetobacter baumannii ATCC 19606.
The subject of assay [2] is Bacillus subtilis AB91021.
The test system of assay [3] is Bacillus thuringiensis AB92037.
In assay [4] the test system is Enterococcus faecalis ATCC 29212.
The test system of assay [5] is Escherichia coli ATCC 25922.
In assay [6] the test system is Escherichia coli ATCC 35218.
Assay [7] relates to Klebsiella pneumoniae ATCC 700603.
Assay [8] relates to Micrococcus luteus AB93113.
Assay [9] deals with Pseudomonas aeruginosa A092994.
The subject of assay [10] is Pseudomonas aeruginosa A093052.
The subject of assay [11] is Pseudomonas aeruginosa A093056.
Assay [12] relates to Pseudomonas aeruginosa A093085.
Assay [13] concerns Pseudomonas aeruginosa A093115.
The test system of assay [14] is Pseudomonas aeruginosa AB93066.
In assay [15] the test system is Pseudomonas aeruginosa ATCC 27853.
Assay [16] has as its system Staphylococcus aureus AB94004.
Assay [17] has as its system Staphylococcus aureus ATCC 25923.
Assay [18] deals with Staphylococcus aureus ATCC 29213.
Assay [19] relates to Staphylococcus aureus NBRC 100910.
Assay [20] concerns Staphylococcus aureus P1369.
Assay [21] deals with Staphylococcus aureus P1374.
The test system of assay [22] is Staphylococcus aureus P1381.
Assay [23] deals with Staphylococcus aureus P1383.
Assay [24] deals with Staphylococcus epidermidis P1111.
The subject of assay [25] is Staphylococcus epidermidis P1389.
In assay [26] the test system is Staphylococcus epidermidis.
Assay [27] concerns Candida albicans ATCC 10231.
Assay [28] relates to Pseudomonas aeruginosa ATCC 15692.
Assay [29] relates to Pseudomonas syringae pv. tabaci 1918NCPPB.
Assay [30] concerns Schizosaccharomyces pombe.
Assay [31] relates to Staphylococcus aureus Cowan 1.
Assay [32] concerns Staphylococcus epidermidis ATCC 12228.
Assay [33] relates to Streptococcus pyogenes ATCC 21547.
In assay [34] the test system is Yersinia pseudotuberculosis YPIII.

Converted amounts (≈) assume the structure as drawn. “And” between values parts separate entries of the source, which are not always exact repeats. Equal values may be shown once.

Turning to `CC[C@H](C)[C@H](NC(=O)[C@H](CCCN=C(N)N)NC(=O)[C@H](CCCCN)NC(=O)[C@@H](NC(=O)[C@@H](N)Cc1ccccc1)[C@@H](C)CC)C(=O)N[C@@H](C)C(=O)N[C@@H](CCCN=C(N)N)C(=O)N[C@@H](CC(C)C)C(=O)N[C@@H](CC(C)C)C(=O)N[C@@H](CCCN=C(N)N)C(=O)N[C@@H](CCCCN)C(=O)N[C@H](C(=O)N[C@@H](Cc1ccccc1)C(N)=O)[C@@H](C)CC` [FIKRIARLLRKIF], the minimum inhibitory concentration (MIC) (commonly the least concentration at which growth counts as inhibited) came out at 2.99 µM (≈ 5 µg/mL) in assay [1]; 4.22 µM (≈ 7.07 µg/mL) in the assay on Acinetobacter baumannii; 3.73 µM (≈ 6.25 µg/mL) in assay [2]; 3.73 µM (≈ 6.25 µg/mL) in assay [3]; 2.99 µM (≈ 5 µg/mL) in assay [4]; 5.97 µM (≈ 9.99 µg/mL) in the assay with Enterococcus faecalis. Also, the MIC in the assay on Enterococcus faecium is 2.99 µM (≈ 5 µg/mL); against Escherichia coli AB94012, 3.73 µM (≈ 6.25 µg/mL); in [5], 14.9 µM and 5.97 µM; in assay [6] it was 5.97 µM (≈ 9.99 µg/mL); in the assay with Escherichia coli it was 8.45 µM (≈ 14.1 µg/mL); in assay [7], 5.97 µM (≈ 9.99 µg/mL). The MIC against Klebsiella pneumoniae is 5.97 µM (≈ 9.99 µg/mL); in assay [8], 3.73 µM (≈ 6.25 µg/mL); in assay [9] it was 29.9 µM (≈ 50 µg/mL); in assay [10] it was not below 59.7 µM; in assay [11] it was 29.9 µM (≈ 50 µg/mL); in assay [12] it was 29.9 µM (≈ 50 µg/mL). The MIC in assay [13] is not below 59.7 µM; in assay [14], 14.9 µM (≈ 25 µg/mL); in [15], 5.97 µM (≈ 9.99 µg/mL); against Pseudomonas aeruginosa, 8.45 µM (≈ 14.1 µg/mL); in assay [16] it was 1.87 µM (≈ 3.13 µg/mL); in assay [17], 1.87 µM (≈ 3.13 µg/mL). The MIC in assay [18] was found to be 2.99 µM (≈ 5 µg/mL); in assay [19], 2.39 µM (≈ 4 µg/mL); in assay [20] it was 1.87 µM (≈ 3.13 µg/mL); in assay [21] it was 1.87 µM (≈ 3.13 µg/mL); in assay [22], 3.73 µM (≈ 6.25 µg/mL); in [23], 3.73 µM (≈ 6.25 µg/mL). For the same compound, the MIC against Staphylococcus aureus worked out at 2.11 µM (≈ 3.53 µg/mL); in assay [24], 1.87 µM (≈ 3.13 µg/mL); in [25] it was 3.73 µM (≈ 6.25 µg/mL); in assay [26], 2.11 µM (≈ 3.53 µg/mL).

As for `CC[C@H](C)[C@H](NC(=O)[C@H](CCCCN)NC(=O)CNC(=O)[C@H](CC(C)C)NC(=O)[C@H](Cc1ccccc1)NC(=O)[C@H](CCCCN)NC(=O)[C@H](CO)NC(=O)[C@H](Cc1ccccc1)NC(=O)[C@H](Cc1c[nH]c2ccccc12)NC(=O)[C@H](CCC(N)=O)NC(=O)[C@@H](NC(=O)[C@@H](N)Cc1ccccc1)C(C)C)C(=O)N[C@@H](CC(C)C)C(N)=O` [FVQWFSKFLGKIL], the MIC in assay [1] amounted to 6 µM (≈ 9.67 µg/mL); with Acinetobacter junii RT-4, 6 µM (≈ 9.67 µg/mL); against Bacillus megaterium Bm11 it was 3 µM (≈ 4.84 µg/mL); in assay [27], 12 µM (≈ 19.3 µg/mL); in assay [4], 12 µM (≈ 19.3 µg/mL); in assay [5], 12 µM (≈ 19.3 µg/mL). Moreover, the MIC in the assay on Escherichia coli D21 amounted to 24 µM (≈ 38.7 µg/mL); in assay [28], 24 µM (≈ 38.7 µg/mL); in assay [15] it was 48 µM (≈ 77.4 µg/mL); in assay [29], 24 µM (≈ 38.7 µg/mL); in the assay with Saccharomyces cerevisiae, 6 µM (≈ 9.67 µg/mL); in [30], 6 µM (≈ 9.67 µg/mL). Moreover, the MIC in [17] was found to be 6 µM (≈ 9.67 µg/mL); in assay [31], 12 µM (≈ 19.3 µg/mL); with Staphylococcus capitis 1 it was 6 µM (≈ 9.67 µg/mL); in assay [32] it was 6 µM (≈ 9.67 µg/mL); in assay [33] it was 6 µM (≈ 9.67 µg/mL); in assay [34], 6 µM (≈ 9.67 µg/mL).

For `CC[C@H](C)[C@@H]1NC(=O)[C@H](CCC(N)=O)NC(=O)[C@H](CCCCN)NC(=O)[C@H](CCSC)NC(=O)[C@H](CCCCN)NC(=O)[C@@H]2CCCN2C(=O)[C@H](C)NC(=O)[C@@H]2CSSC[C@@H](C(=O)N[C@@H](CCCCN)C(=O)N[C@@H](CCCN=C(N)N)C(=O)N[C@@H](CCCCN)C(=O)O)NC(=O)[C@@H]3CSSC[C@H](NC(=O)[C@H](CO)NC(=O)[C@@H](NC(=O)[C@H](CO)NC(=O)[C@H](CC(N)=O)NC(=O)CNC(=O)[C@@H](NC(=O)[C@H](CC(N)=O)NC(=O)[C@@H](N)CCCCN)[C@@H](C)CC)C(C)C)C(=O)N[C@@H](CC(C)C)C(=O)N[C@@H](CCCN=C(N)N)C(=O)N[C@@H](CC(N)=O)C(=O)N[C@@H](CCCCN)C(=O)NCC(=O)N[C@@H](C(C)C)C(=O)N[C@@H](CSSC[C@H](NC(=O)[C@H]([C@@H](C)O)NC(=O)CNC1=O)C(=O)NCC(=O)N[C@@H](CCSC)C(=O)N1CCC[C@H]1C(=O)N[C@@H](CCC(N)=O)C(=O)N[C@@H](C(C)C)C(=O)N[C@@H](CCCCN)C(=O)N3)C(=O)N[C@@H](CCSC)C(=O)N1CCC[C@H]1C(=O)NCC(=O)N[C@@H](CCCCN)C(=O)N2` [KNIGNSVSCLRNKGVCMPGKCAPKMKQIGTCGMPQVKCCKRK], the MIC was 1.1 µM (≈ 4.99 µg/mL) against Bordetella pertussis, 22.1 µM (≈ 99.9 µg/mL) in assay [5] and 17.7 µM (≈ 79.9 µg/mL) in assay [17].
